Two compounds from patent US12338263B2, “Antibacterial aminoglycoside derivatives” (priority 2019, dated 2025) can be followed below.

Assay in all cases: Antibacterial effect (MIC), micro-liquid dilution method (CLSI)
Common to all, as to format: cell-based

One experiment relates to E. coli ATCC 25922. The settings on record: Escherichia coli, ATCC25922. The method, then:
(§1) Three strains Enterobacteriaceae E. coli ATCC 25922, E. coli ATCC BAA-2523, K. pneumonia ATCC BAA-1705 were used to determine the Minimum Inhibitory Concentration (MIC) of each compound by the micro-liquid dilution method according to the requirements of the Institute of Clinical and Laboratory Standard (CLSI). 2-fold series diluted compounds (with a final concentration range […]) were added to a round bottom 96-well plate (Catalog #3788, Corning). A single clone of fresh bacteria on the plate of Mueller Hinton II Agar (MHA, Cat. No. 211438, BD BBL™) after overnight culture was picked and suspended in sterile saline to adjust the concentration to 1×10^8 CFU/mL, and then diluted to 5×10^5 CFU/mL by Cation-Adjusted Mueller Hinton II Broth (MHB, Catalog #212332, BD BBL™), 100 μL of which was added to the round bottom 96-well plate containing the drug. The plate was inverted and incubated at 37° C. for 20-24 hours, and the MIC value was read. The lowest drug concentration that inhibits bacterial growth was defined as MIC.

Experiment [1] relates to K. pneumoniae ATCC BAA-1705. The settings on record: Klebsiella pneumoniae, ATCCBAA1705. The method, then:
as §1

A further experiment has as its system E. coli ATCC BAA-2523. The settings on record: Escherichia coli, ATCCBAA2523. The method, then: as §1

SMILES strings stand for the structures. ≈ marks a conversion by molar mass, not a printed value. Like-named read-outs stand apart in the source and are kept apart here.

As for `CN[C@@H]1[C@@H](O)[C@@H](O[C@@H]2[C@@H](O)[C@H](O[C@H]3OC(CNCCCONC(=N)N)=CC[C@H]3N)[C@@H](N)C[C@H]2NC(=O)[C@@H](O)CCN)OC[C@]1(C)O` [Compound 3], the minimum inhibitory concentration (MIC) is 0.5 µM (≈ 0.332 µg/mL) against E. coli ATCC 25922, 0.25 µM (≈ 0.166 µg/mL) in experiment [1] and 1 µM (≈ 0.664 µg/mL) in the experiment with E. coli ATCC BAA-2523.

In the case of `CN[C@@H]1[C@@H](O)[C@@H](O[C@@H]2[C@@H](O)[C@H](O[C@H]3OC(CNCCOCCONC(=N)NCC(F)F)=CC[C@H]3N)[C@@H](N)C[C@H]2NC(=O)[C@@H](O)CCN)OC[C@]1(C)O` [Compound 2], the minimum inhibitory concentration (MIC) with E. coli ATCC 25922 (E. coli ATCC 25922, 37° C., 20-24 hours, read-out: MIC) was 2 µM (≈ 1.52 µg/mL); in experiment [1] (K. pneumoniae ATCC BAA-1705, 37° C., 20-24 hours, read-out: MIC), 4 µM (≈ 3.03 µg/mL); with E. coli ATCC BAA-2523 (E. coli ATCC BAA-2523, 37° C., 20-24 hours, read-out: MIC), 4 µM (≈ 3.03 µg/mL).

What is called MIC is the least concentration at which growth counts as inhibited.
